Assay results reported in patent US5482954A, “Signal transduction inhibitor triazole and diazole compounds” (priority 1994, dated 1996).

Key:
OVCAR3 cells [1] = assay: Type IV collagen-stimulated motility; assay type: cell-based, human; settings: data not shown
A2058 cells = assay: [3H]thymidine incorporation; assay type: cell-based, human; settings: 0-10 μg/mL, 24 hr
Procedure: (§1) Proliferation: Two independent methods were used to determine the effect of various compounds on cellular proliferation. The first method utilized [^3 H]thymidine labelling and was performed using A2058, 5R, OVCAR3, and MDA-231 cells. Because the potential effect of compound 1 on thymidine metabolism was unknown, a clonogenic assay was also used. This assay utilized crystal violet nuclear staining.
(§2) For the thymidine incorporation assay, an initial aliquot of 15,000 cells was plated in 96 well plates. The cells were grown to subconfluence, serum-starved, then fed with serum-containing media to which incremental doses of compound 1 (0-10 μg/mL) were added. After 24 hr, the cells were pulsed with [^3 H]thymidine (0.5 μCi/well) for 2 hr. Trichloroacetic acid was added to precipitate […] [^3 H]thymidine. After removal, ice cold ethanol/diethyl ether was added to precipitate cellular nucleic acids. The residue was solubilized with 0.2M NaOH and [^3 H]thymidine incorporation was determined by liquid scintillation counting. Inhibition of thymidine uptake was calculated as a percent of untreated control cell incorporation of labelled thymidine. As FIG. 4 indicates, de novo DNA synthesis was inhibited in all of the tumor cell lines. Maximal inhibition (80%) was found with the 5R cells.

MDA-231 cells = assay: [3H]thymidine incorporation; assay type: cell-based, human; settings: 0-10 μg/mL, 24 hr
Procedure: as §1, §2

OVCAR3 cells [2] = assay: [3H]thymidine incorporation; assay type: cell-based, human; settings: 0-10 μg/mL, 24 hr
Procedure: as §1, §2

CHOm5 cells [3] = assay: Carbachol-stimulated generation of inositol phosphates; assay type: cell-based, Chinese hamster; settings: concentrations above 10 μM
Procedure: This example illustrates the effect of compound 1 on the generation and release of phosphatidyl inositol from either A2058 cells (stimulated with autocrine motility factor) or CHOm5 cells (stimulated with carbachol).
A second assay utilized CHO cells which were transfected with and stably expressed the m5 subtype of the muscarinic acetylcholine receptor.
CHOm5 cells were incubated with [^3 H]inositol (0.5 μCi/well) for 18 to 24 hr. Before the addition of test compounds, the cells were washed twice with 250 μL of serum-free media supplemented with 20 mM HEPES and 10 mM lithium chloride. The test compounds were added in a final volume of 250 μL and the reaction was allowed to proceed for 15 min at 37° C. The reaction was stopped by the addition of 250 μL of an ice-cold solution containing 1M KOH, 18 mM Na2 B4 O7, 3.8 mM EDTA and 7.6 mM NaOH. The stop solution was neutralized immediately with the addition of 250 μL of a solution containing 7.5% HCl. Released inositol phosphates were separated by anion exchange chromatography.

CHOm5 cells [4] = assay: Carbachol-stimulated arachidonic acid release; assay type: cell-based, Chinese hamster
Text: This example illustrates the effect of selected compounds on the release of arachidonic acid from carbachol-stimulated CHOm5 cells. Carbachol is a muscarinic agonist which in the muscarinic receptor transfected CHO cells stimulates the activation of phospholipase A2, resulting in arachidonic acid release and metabolism. Downstream metabolites of arachidonic acid, prostaglandins and leukotrienes are also second messengers.
The effect of compound 1 on arachidonic acid release from CHOm5 cells was determined by incubating the cells to isotopic equilibrium with labelled arachidonic acid, then washing the cells twice with 1 mL of serum-free media supplemented with 20 mM HEPES and 0.2% bovine serum albumin (fatty acid free) to trap the unincorporated labelled arachidonic acid, and then simultaneously adding carbachol (100 μM) and increasing concentrations of 1. After 15 min, the reaction was stopped by removing the incubation media which was then centrifuged at 10,000×g to eliminate any nonadherent cells.

CHOm5 cells [5] = assay: Carbachol-stimulated 45Ca2+ influx; assay type: cell-based, Chinese hamster; parameters: % Inhibition of 45Ca2+ Influx into CHOm5 Cells: concentration or dose not given beside the values
Procedure: Calcium influx was determined using two methods. The first method involved the use of ^45 Ca^2+, while the second method utilized a fluorescent intracellular calcium chelator, Fura-2. The method using Fura-2 is semi-quantitative and is preferred for kinetic analysis and screening whereas the ^45 Ca^2+ method is quantitative.
CHOm5 cells in monolayer culture were washed free of serum-containing media and incubated with either carbachol or the calcium ionophore A23187 (from Molecular Probes, Eugene, Oreg., USA) in the presence of ^45 Ca^2+ and defined buffer (E2 medium with 0.1 mM MgCl2 and 1.0 mM CaCl2). After incubation for 5 min, the radioactive buffer was rapidly and repeatedly washed off with media containing LaCl3, a competitor of calcium efflux. The cell monolayer was solubilized and the calcium uptake was determined by scintillation counting.
Stimulated uptake of radiolabelled calcium was measured as described above. The abbreviations CTL and CC are control and carbachol-stimulated calcium influx values. respectively.

[6] = test system: 5R ras-transfected rat embryo fibroblast cell line; assay: Experimental pulmonary metastasis, tumor cells pretreated in vitro; assay type: in vivo, nude mice; settings: cells treated overnight, 1-10 μM; 10 d
Procedure: This example illustrates the effect of selected compounds on the development of experimental pulmonary metastases, when the tumor cells are first incubated with the compound in vitro and subsequently injected into the tail vein of nude mice. In this example, both the 5R ras-transfected rat embryo fibroblast cell line and the HT-29 human colon cancer cell line were evaluated.
The 5R ras-transfected rat embryo fibroblast cell line forms confluent pulmonary metastases within 2-3 weeks after inoculation. For the experimental metastasis assay, 5R cells were treated in culture overnight with the test compounds (1-10 μM). After culture, the cells were harvested, washed and injected into the tail vein of six-week old nude mice. After 10 d, the mice were humanely sacrificed and the lungs were removed and fixed in Bouin's solution. The visible pulmonary metastases were counted.

[7] = Side effects in phase I clinical study; assay type: in vivo, human; settings: oral, to date
Text: Seven patients with solid tumor metastasis are undergoing treatment via oral administration of compound 1 under the FDA approved phase I clinical study. […] PT# is patient number. Response is the sum of the products of bidirectional measurements.

[8] = test system: signal transduction and tumor growth; assay: Biological and biochemical assays, summary; assay type: cell-based; settings: summary of all assays
Text: Compound 1 was inhibitory for the biological and biochemical assays.

cell adhesion to laminin = assay: Cell adhesion to laminin; assay type: cell-based; settings: data not shown
Procedure: Cells were preincubated with compound 1 (0.03-10 μg/mL) for periods of 2 to 48 hr prior to the adhesion assay. In addition, compound 1 remained present during the assay. […] Maximal inhibition of adhesion was observed following overnight exposure of the cells to compound 1.

[9] = test system: L-type voltage gated calcium channels; settings: Hupe, et al.; cited from earlier work

SMILES: NC(=O)c1nnn(Cc2cc(Cl)c(C(=O)c3ccc(Cl)cc3)c(Cl)c2)c1N [Compound 1]
- motility due to type IV collagen stimulation (OVCAR3 cells [1]): inhibited motility
- inhibition of de novo DNA synthesis (A2058 cells): inhibited
- inhibition of de novo DNA synthesis (MDA-231 cells): inhibited
- inhibition of de novo DNA synthesis (OVCAR3 cells [2]): inhibited
- inhibition of carbachol-stimulated generation of inositol phosphates (CHOm5 cells [3]): partially inhibited
- IC50 (CHOm5 cells [4]; Cricetulus griseus, 0.25 h, carbachol 100 μM, 15 min): 5.2 ± 0.8 µM
- Arachidonic Acid Release (% of Control) (CHOm5 cells [4]; Table K): 50.9 ± 9 % of Control
- IC50 (CHOm5 cells [5]; Cricetulus griseus, FIG. 12, carbachol): 0.935 ± 0.018 µM
- % Inhibition of 45Ca2+ Influx into CHOm5 Cells (CHOm5 cells [5]; Table I, carbachol-stimulated): 74%
- inhibition of pulmonary colonization [6]: 95%
- abnormalities of blood cellular composition [7]: no abnormalities of blood cellular composition
- bone marrow depression (white cell counts) [7]: do not show any bone marrow depression
- liver or kidney function abnormalities [7]: do not show any liver or kidney function abnormalities
- neurological toxicity, hair loss or electrolyte imbalances [7]: no neurological toxicity, hair loss or electrolyte imbalances
- inhibition in the biological and biochemical assays [8]: inhibitory
- cell adhesion to laminin (cell adhesion to laminin): decreased cell adhesion
- inhibition of L-type voltage gated calcium channels [9]: inhibit
